{"source": "patent US8420621B2", "about": "“Methods of using gamma cyclodextrin to control blood glucose and insulin secretion” (Abbott Laboratories, priority 2004, dated 2013)", "key": {"[1]": {"tested_on": "male fatty Zucker fa/fa rats", "assay": "Meal glucose tolerance test, postprandial glycemic response to a carbohydrate challenge", "format": "in vivo, rat", "text": "The objective of the animal study was to evaluate the postprandial glycemic response of male fatty Zucker fa/fa rats to a carbohydrate challenge consisting of gamma-cyclodextrin or maltodextrin.\nTwenty male fatty Zucker fa/fa rats were obtained from Harlan (Indianapolis, Ind., USA). At the time of testing, rats weighed ˜450 grams. Rats were individually housed in microisolator cages on dry bedding and were given ad libitum access to water and non-purified rat diet (pelletted; 8640 Harlan Teklad 22/5 Rodent Diet; Harlan Teklad, Madison, Wis., USA). The housing facility was maintained at 19-23° C., 30-70% relative humidity, and 12-hour light-dark cycle.\nTest carbohydrates were evaluated in a randomized crossover design with a 7-day washout period between each meal glucose tolerance test (MGTT). Every rat received each treatment. Rats were routinely fed the non-purified diet. After overnight food deprivation, rats were orally fed test meals as a solution. Rats consumed the test meal within 1 minute. Blood samples were collected from the tail vein and immediately analyzed for plasma glucose by the glucose oxidase method utilizing a Precision G Blood Glucose Testing System (Medisense, Inc., Bedford, Mass., USA) before (0 minutes) and 30, 60, 90, 120, and 180 minutes postprandial. Rats had free access to water throughout the […].\nLodex 15® (maltodextrin) was obtained from Cerestar USA (Hammond, Ind., USA) with a dextrose equivalence (DE) of 15. Gamma-cyclodextrin (Wacker Cavamax W8) was obtained from Wacker Biochem Corp., Müchen, Germany. Carbohydrates were made into 500 g/L solutions with water. Each solution was heated in a microwave for 30 seconds to completely solubilize the carbohydrate solutions 1 hour before testing. Test meal volume was ˜1 mL and was adjusted such that each rat was delivered an equivalent carbohydrate challenge (1.0 g/kg body weight)."}, "healthy adult subjects [2]": {"tested_on": "healthy adult subjects", "assay": "Clinical study: postprandial serum insulin response (ELISA)", "format": "in vivo, human", "text": "Thirty-two healthy adult subjects received two treatments in a double-masked, randomized, crossover design. The two treatments consisted of 50 g challenges of either maltodextrin or gamma-cyclodextrin. Blood samples were collected over a three-hour period, and breath samples collected over an eight-hour period following consumption of each carbohydrate. […] This study utilized a randomized, double-masked, crossover design, with a 4-14 day washout period between treatments. Before completing the two treatment visits, each subject completed one pre-study gastrointestinal tolerance test visit. Randomization was carried out by sealed envelopes stating which pre-study treatment was to be received, as well as in which sequence the two treatment visits were to be carried out. These envelopes were prepared from randomization schedules generated at Ross Products Division of Abbott Laboratories, Two product coordinators assigned an envelope from the top of the pile to each subject in the order that they passed all screening criteria and were given subject numbers. Besides carrying out randomization, the product coordinators were responsible for study product inventory and serving the appropriate product to subjects at each visit so that other study staff could not become aware of the study product identity. […] At each of the two treatment visits, subjects received 16 fl oz of a study product containing either 50 g of maltodextrin or 50 g of gamma-cyclodextrin. All beverages were served cold in styrofoam cups with lids and straws, labeled only with the subject number, subject initials and visit number, with the intention of hiding any slight differences in appearance that could be visible to study staff or subjects. […] A breath sample was collected for measurement of breath hydrogen. […] After consumption of the study beverage, the subject resumed fasting. Time 0 was designated as the time at which the subject began drinking the study beverage. […] Subjects were limited to the consumption of 8 fl oz of water during this three hour blood collection period. Approximately 10 mL of normal saline was injected into the vein after each blood draw in order to keep the line open and to replace the fluid lost from the blood collected. Insulin was analyzed using DSL-10-1600 Insulin ELISA Kits (Diagnostic Systems Laboratories, mc, Webster, Tex.). […] An acidic stopping solution is then added and the enzymatic turnover of TMB is determined by dual wavelength absorbance measurement at 450 and 620 nanometers. […] is proportional to the concentration of insulin present. […]"}, "healthy adult subjects [3]": {"tested_on": "healthy adult subjects", "assay": "Clinical study: gastrointestinal tolerance, stool frequency and consistency", "format": "in vivo, human", "experimental": "For the pre-study tolerance test, subjects were instructed to not consume anything the day before that was known by them to cause gastrointestinal symptoms. They also completed an overnight 10-16 hour fast. The morning of the test visit, subjects reported to the study site and consumed 8 fl oz of one of the two study beverages within 10 minutes. The study beverage contained either 25 […] of maltodextrin or 25 grams of gamma-cyclodextrin. Subjects then resumed fasting. Subjects were allowed to leave the study site after the beverage had been consumed, however they were instructed to remain fasting for three hours from the time they began drinking the beverage. Subjects recorded gastrointestinal tolerance symptoms and stool frequency and consistency for 24 hours from the time they began drinking the study beverage. Upon subject completion of the gastrointestinal tolerance symptoms and stool frequency and consistency forms, the data were reviewed for signs of abnormal tolerance by a physician. The purpose of this symptom review was to determine if the product was generally well-tolerated. […] After the 180-minute blood and breath samples were collected, the subject was allowed to leave the study site and collect the remaining breath samples (hours 4-8) on their own. During the remainder of the breath collection period, the subject was instructed to refrain from sleep and exercise. Subjects were to remain fasting with the exception of an optional one or two 8 fl oz cans of Ensure® Plus. The flavor given to each subject was the same as that which was chosen for the pre-treatment meals, and the number of cans chosen remained constant for both treatments. Subjects were allowed to consume water as desired during this time. After completion of breath sample collection, subjects were free to resume their normal sleeping, eating, and exercise patterns. They continued to record gastrointestinal symptoms, stool frequency and consistency, and medication usage for the next 48 hours. […]"}, "healthy adult subjects [4]": {"tested_on": "healthy adult subjects", "settings": "single 8 g doses, Koutsou et al. 1999; cited from earlier work"}}}
{"smiles": "OC[C@H]1O[C@@H]2O[C@H]3[C@H](O)[C@@H](O)[C@@H](O[C@H]4[C@H](O)[C@@H](O)[C@@H](O[C@H]5[C@H](O)[C@@H](O)[C@@H](O[C@H]6[C@H](O)[C@@H](O)[C@@H](O[C@H]7[C@H](O)[C@@H](O)[C@@H](O[C@H]8[C@H](O)[C@@H](O)[C@@H](O[C@H]9[C@H](O)[C@@H](O)[C@@H](O[C@H]1[C@H](O)[C@H]2O)O[C@@H]9CO)O[C@@H]8CO)O[C@@H]7CO)O[C@@H]6CO)O[C@@H]5CO)O[C@@H]4CO)O[C@@H]3CO", "note": "[Gamma-Cyclodextrin, Gamma-cyclodextrin]", "values": [{"measurement": "Change from baseline in plasma glucose, Change@ 0 min", "setting": "[1]; 0 min, 1.0 g/kg body weight oral", "value": 0}, {"measurement": "Change from baseline in plasma glucose, Change@ 30 min", "setting": "[1]; 30 min, 1.0 g/kg body weight oral", "value": "52.0 ± 9.4"}, {"measurement": "Plasma glucose, 30 min", "setting": "[1]; 30 min postprandial, 1.0 g/kg body weight oral", "value": "165.6 ± 10.6"}, {"measurement": "Change from baseline in plasma glucose, Change@ 60 min", "setting": "[1]; 60 min, 1.0 g/kg body weight oral", "value": "48.1 ± 5.5"}, {"measurement": "Plasma glucose, 60 min", "setting": "[1]; 60 min postprandial, 1.0 g/kg body weight oral", "value": "161.8 ± 7.8"}, {"measurement": "Change from baseline in plasma glucose, Change@ 90 min", "setting": "[1]; 90 min, 1.0 g/kg body weight oral", "value": "38.0 ± 4.1"}, {"measurement": "Plasma glucose, 90 min", "setting": "[1]; 90 min postprandial, 1.0 g/kg body weight oral", "value": "151.6 ± 7.0"}, {"measurement": "Change from baseline in plasma glucose, Change@ 120 min", "setting": "[1]; 120 min, 1.0 g/kg body weight oral", "value": "39.4 ± 4.3"}, {"measurement": "Plasma glucose, 120 min", "setting": "[1]; 120 min postprandial, 1.0 g/kg body weight oral", "value": "153.1 ± 6.5"}, {"measurement": "Change from baseline in plasma glucose, Change@ 180 min", "setting": "[1]; 180 min, 1.0 g/kg body weight oral", "value": "28.9 ± 5.3"}, {"measurement": "Plasma glucose, 180 min", "setting": "[1]; 180 min postprandial, 1.0 g/kg body weight oral", "value": "142.6 ± 6.4"}, {"measurement": "Glucose concentration compared to consumption of maltodextrin", "setting": "[1]; at 60 and 90 minutes, P<0.05", "value": "lower"}, {"measurement": "Plasma glucose, 0 min", "setting": "[1]; baseline before test meal, 1.0 g/kg body weight oral, mean ± spread", "value": "113.6 ± 4.2"}, {"measurement": "Glycemic response relative to a comparable amount of Lodex 15", "setting": "[1]; oral, 1.0 g/kg, after heat treatment of the solution", "value": "blunted glycemic response"}, {"measurement": "Serum insulin area under the curve (AUC), effect versus maltodextrin", "setting": "healthy adult subjects [2]; 50 g oral challenge", "value": "significantly reduced"}, {"measurement": "Positive incremental 120 min serum insulin AUC", "setting": "healthy adult subjects [2]; 50 g oral, mean±SEM, n=27 maltodextrin, n=31 gamma-cyclodextrin", "value": "993.4±131.6"}, {"measurement": "Adjusted peak insulin value compared with maltodextrin", "setting": "healthy adult subjects [2]; 50 g oral, p=0.0003", "value": "significantly decreased"}, {"measurement": "Relative insulinemic response compared to maltodextrin", "setting": "healthy adult subjects [2]; baseline to 120 min, 50 g oral", "value": 51, "unit": "%"}, {"measurement": "Gastrointestinal tolerance versus maltodextrin, pre-study tolerance test", "setting": "healthy adult subjects [3]; 25 grams oral, 24 hours, reviewing physician", "value": "no significant differences"}, {"measurement": "Stool frequency and consistency, difference between treatments", "setting": "healthy adult subjects [3]; 50 g oral", "value": "no significant differences"}, {"measurement": "Intensity and frequency of nausea, difference between treatments", "setting": "healthy adult subjects [3]; first 24 hours after 50 g oral, crossover analysis", "value": "not significantly different"}, {"measurement": "Gastrointestinal tolerance", "setting": "healthy adult subjects [4]", "value": "good tolerance"}]}
